AC50 data for 29 molecules are collected here from ChEMBL document CHEMBL5291721, “A preclinical secondary pharmacology resource illuminates target-adverse drug reaction associations of marketed drugs” (Nat Commun, 2023).

The structures appear in SMILES notation.

Assay [1] deals with 5-hydroxytryptamine receptor 2A (Homo sapiens, UniProt P28223). In kind it is functional, cell-based.
Another assay addresses T1, Glucocorticoid receptor (Homo sapiens, UniProt P04150).
T1 sequence (P04150 whole entry): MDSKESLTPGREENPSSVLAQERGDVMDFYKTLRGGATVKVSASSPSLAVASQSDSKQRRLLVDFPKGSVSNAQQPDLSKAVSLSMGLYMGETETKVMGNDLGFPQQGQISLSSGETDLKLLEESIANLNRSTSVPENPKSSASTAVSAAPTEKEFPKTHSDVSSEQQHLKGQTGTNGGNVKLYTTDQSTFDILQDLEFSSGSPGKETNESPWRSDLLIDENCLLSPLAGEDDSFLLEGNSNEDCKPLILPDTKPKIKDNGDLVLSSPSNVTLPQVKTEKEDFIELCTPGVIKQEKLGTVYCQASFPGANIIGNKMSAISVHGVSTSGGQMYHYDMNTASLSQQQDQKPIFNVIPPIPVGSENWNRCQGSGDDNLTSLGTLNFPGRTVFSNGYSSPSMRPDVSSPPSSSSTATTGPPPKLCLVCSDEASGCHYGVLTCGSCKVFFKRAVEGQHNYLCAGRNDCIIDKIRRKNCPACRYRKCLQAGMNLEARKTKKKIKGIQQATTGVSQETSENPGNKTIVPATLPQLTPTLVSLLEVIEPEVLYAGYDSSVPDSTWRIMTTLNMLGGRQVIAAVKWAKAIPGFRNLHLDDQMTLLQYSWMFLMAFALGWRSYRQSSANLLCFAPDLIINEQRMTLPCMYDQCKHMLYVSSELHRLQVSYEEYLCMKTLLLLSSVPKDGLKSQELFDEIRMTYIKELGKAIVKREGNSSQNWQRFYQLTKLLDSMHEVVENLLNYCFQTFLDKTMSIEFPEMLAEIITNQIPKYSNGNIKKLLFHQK
In kind it is functional.

In assay [2] the target is T2, Peroxisome proliferator-activated receptor gamma (Homo sapiens, UniProt P37231).
T2 sequence (P37231 whole entry): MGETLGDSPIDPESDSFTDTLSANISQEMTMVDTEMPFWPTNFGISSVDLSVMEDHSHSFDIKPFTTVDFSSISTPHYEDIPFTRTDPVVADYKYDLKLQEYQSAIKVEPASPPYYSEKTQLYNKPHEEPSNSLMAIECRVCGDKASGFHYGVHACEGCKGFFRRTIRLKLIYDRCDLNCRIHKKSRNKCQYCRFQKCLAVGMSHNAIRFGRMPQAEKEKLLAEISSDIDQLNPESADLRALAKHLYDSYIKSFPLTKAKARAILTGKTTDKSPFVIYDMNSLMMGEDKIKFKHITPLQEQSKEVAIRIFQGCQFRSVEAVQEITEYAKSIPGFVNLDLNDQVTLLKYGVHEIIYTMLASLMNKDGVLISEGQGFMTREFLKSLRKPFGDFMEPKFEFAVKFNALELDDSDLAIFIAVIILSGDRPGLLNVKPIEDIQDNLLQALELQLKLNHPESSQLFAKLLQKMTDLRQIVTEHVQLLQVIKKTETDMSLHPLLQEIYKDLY
It counts as functional.

The target in assay [3] is T2, Peroxisome proliferator-activated receptor gamma. It counts as functional. The source holds these as a separate data set.
Another assay concerns the target T3, B1 bradykinin receptor (Homo sapiens, UniProt P46663).
T3 sequence (P46663 whole entry): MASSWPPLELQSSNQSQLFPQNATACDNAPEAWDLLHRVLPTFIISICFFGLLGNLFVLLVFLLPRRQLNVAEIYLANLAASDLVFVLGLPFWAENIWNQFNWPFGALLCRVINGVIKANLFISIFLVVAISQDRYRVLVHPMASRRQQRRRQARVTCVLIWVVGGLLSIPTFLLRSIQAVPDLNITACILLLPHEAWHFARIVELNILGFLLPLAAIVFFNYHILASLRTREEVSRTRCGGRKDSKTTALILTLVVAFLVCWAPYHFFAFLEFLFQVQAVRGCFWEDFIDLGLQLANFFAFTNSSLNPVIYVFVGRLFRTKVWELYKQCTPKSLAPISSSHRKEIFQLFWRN

For a further assay, the target named is Cannabinoid receptor 1 (Homo sapiens, UniProt P21554).
Sequence of Cannabinoid receptor 1 (P21554 whole entry): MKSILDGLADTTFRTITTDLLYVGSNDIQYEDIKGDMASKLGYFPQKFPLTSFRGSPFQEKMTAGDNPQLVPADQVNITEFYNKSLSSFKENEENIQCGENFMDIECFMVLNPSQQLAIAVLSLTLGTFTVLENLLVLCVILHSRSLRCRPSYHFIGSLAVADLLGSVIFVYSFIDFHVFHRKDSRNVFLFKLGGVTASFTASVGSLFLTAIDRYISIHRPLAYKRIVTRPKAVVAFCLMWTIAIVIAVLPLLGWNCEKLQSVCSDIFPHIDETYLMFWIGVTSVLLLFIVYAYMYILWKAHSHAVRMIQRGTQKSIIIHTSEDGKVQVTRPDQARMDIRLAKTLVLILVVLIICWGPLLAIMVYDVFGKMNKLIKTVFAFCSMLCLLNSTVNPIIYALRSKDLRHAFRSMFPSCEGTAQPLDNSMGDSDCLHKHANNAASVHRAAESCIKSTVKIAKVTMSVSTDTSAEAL
The target in assay [4] is T4, Endothelin receptor type B (Homo sapiens, UniProt P24530).
T4 sequence (P24530 whole entry): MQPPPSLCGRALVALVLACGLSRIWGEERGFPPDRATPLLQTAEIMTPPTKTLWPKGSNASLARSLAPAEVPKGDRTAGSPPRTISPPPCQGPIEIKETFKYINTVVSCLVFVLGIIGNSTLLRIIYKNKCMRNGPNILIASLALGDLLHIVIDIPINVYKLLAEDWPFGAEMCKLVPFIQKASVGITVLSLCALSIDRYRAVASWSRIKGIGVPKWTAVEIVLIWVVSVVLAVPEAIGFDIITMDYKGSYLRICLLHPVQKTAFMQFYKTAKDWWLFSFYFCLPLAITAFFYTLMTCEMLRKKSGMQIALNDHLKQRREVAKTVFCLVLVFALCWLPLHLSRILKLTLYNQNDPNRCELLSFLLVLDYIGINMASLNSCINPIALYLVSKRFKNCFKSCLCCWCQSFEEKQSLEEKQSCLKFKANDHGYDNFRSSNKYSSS

For a further assay, the target named is Melanocortin receptor 4 (Homo sapiens, UniProt P32245).
Sequence of Melanocortin receptor 4 (P32245 whole entry): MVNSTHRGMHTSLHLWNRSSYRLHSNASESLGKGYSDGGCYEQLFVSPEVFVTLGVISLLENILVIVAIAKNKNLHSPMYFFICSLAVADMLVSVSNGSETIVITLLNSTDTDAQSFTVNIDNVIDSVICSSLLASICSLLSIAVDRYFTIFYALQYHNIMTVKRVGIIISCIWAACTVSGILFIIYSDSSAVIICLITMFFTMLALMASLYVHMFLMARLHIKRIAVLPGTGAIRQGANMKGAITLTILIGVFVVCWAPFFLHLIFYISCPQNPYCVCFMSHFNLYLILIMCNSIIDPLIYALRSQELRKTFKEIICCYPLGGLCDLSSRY
Assay [5] concerns the target Neurotensin receptor type 1 (Homo sapiens, UniProt P30989).

For orientation: AC50 means the concentration at which the activity in the assay is half-maximal. Low values mean activity at low concentration, high ones activity only at high concentration.
Further: assay procedure not described here.

Sequence of 5-hydroxytryptamine receptor 2A (P28223 whole entry): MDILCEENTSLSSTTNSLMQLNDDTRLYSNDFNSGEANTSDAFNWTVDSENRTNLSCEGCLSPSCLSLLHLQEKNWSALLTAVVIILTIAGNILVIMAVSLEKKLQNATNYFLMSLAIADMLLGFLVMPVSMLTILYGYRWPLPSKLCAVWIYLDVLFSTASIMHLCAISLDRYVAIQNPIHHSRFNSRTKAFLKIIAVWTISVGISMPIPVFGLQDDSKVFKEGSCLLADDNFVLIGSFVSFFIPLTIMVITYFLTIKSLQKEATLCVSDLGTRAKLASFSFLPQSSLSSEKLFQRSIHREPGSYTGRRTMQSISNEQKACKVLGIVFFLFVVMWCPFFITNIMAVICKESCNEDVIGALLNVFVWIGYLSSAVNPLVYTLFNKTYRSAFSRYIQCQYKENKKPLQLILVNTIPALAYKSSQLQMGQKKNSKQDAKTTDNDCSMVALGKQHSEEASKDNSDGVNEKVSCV
Sequence of Neurotensin receptor type 1 (P30989 whole entry): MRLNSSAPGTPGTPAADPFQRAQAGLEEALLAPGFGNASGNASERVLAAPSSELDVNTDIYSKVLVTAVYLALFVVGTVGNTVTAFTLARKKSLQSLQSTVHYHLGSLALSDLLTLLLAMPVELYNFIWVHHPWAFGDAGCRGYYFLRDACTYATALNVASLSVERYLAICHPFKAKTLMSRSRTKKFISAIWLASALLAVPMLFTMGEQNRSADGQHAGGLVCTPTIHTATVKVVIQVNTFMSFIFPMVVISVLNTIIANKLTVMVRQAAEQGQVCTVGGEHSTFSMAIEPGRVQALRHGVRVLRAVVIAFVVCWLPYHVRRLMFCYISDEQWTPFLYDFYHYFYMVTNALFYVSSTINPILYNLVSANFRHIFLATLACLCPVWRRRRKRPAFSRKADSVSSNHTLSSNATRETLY

As to `CC(=N)N1CC[C@H](SC2=C(C(=O)O)N3C(=O)[C@H]([C@@H](C)O)[C@H]3C2)C1`, the AC50 (in [1]; at Glucocorticoid receptor; in assay [2]; in assay [3]) was > 300 µM throughout.
`CC1(C)S[C@@H]2[C@H](NC(=O)[C@H](N)c3ccc(O)cc3)C(=O)N2[C@H]1C(=O)O` [AMOXICILLIN]: the AC50 (at B1 bradykinin receptor; on Cannabinoid receptor 1; in assay [4]; at Melanocortin receptor 4; in assay [5]) was > 30 µM each time.
As to `O=C1CN2Cc3c(ccc(Cl)c3Cl)N=C2N1` [ANAGRELIDE], the AC50 on Cannabinoid receptor 1 was > 10 µM; in [1] it was > 30 µM; on Melanocortin receptor 4, > 30 µM.
As to `CCc1oc2ccccc2c1C(=O)c1cc(Br)c(O)c(Br)c1` [BENZBROMARONE], the AC50 on Cannabinoid receptor 1 is > 10 µM; on Melanocortin receptor 4, > 30 µM; on Glucocorticoid receptor, > 30 µM.
In the case of `C=C(C)[C@@H]1CCC(C)=C[C@H]1c1c(O)cc(CCCCC)cc1O` [CANNABIDIOL], the AC50 (in assay [1]; at Glucocorticoid receptor) was > 30 µM each time.
Regarding `CO/N=C(\C(=O)N[C@@H]1C(=O)N2C(C(=O)O)=C(COC(N)=O)CS[C@H]12)c1ccco1` [CEFUROXIME], the AC50 in assay [1], in assay [2] and in assay [3] was > 30 µM each time.
As to `[H]/N=C(\N/C(=N/[H])NCCCCCCNC(=N)NC(=N)Nc1ccc(Cl)cc1)Nc1ccc(Cl)cc1` [CHLORHEXIDINE], the AC50 was 3.07 µM on Cannabinoid receptor 1, > 10 µM in [1] and 0.271 µM at Melanocortin receptor 4.
`Clc1cccc(Cl)c1N=C1NCCN1` [CLONIDINE]: the half-maximal activity concentration (AC50) at B1 bradykinin receptor was > 30 µM; at Cannabinoid receptor 1, > 10 µM; in assay [4], > 30 µM; at Melanocortin receptor 4, > 30 µM; in assay [5], > 30 µM.
Take `CN1C[C@H](C(=O)N[C@]2(C)O[C@@]3(O)[C@@H]4CCCN4C(=O)[C@H](Cc4ccccc4)N3C2=O)C[C@@H]2c3cccc4[nH]cc(c34)C[C@H]21` [DIHYDROERGOTAMINE]: the AC50 on B1 bradykinin receptor was > 30 µM; on Cannabinoid receptor 1, > 10 µM; in assay [4] it was > 30 µM; on Melanocortin receptor 4, > 30 µM; in [5] it was > 30 µM.
As to `CNCC[C@H](Oc1cccc2ccccc12)c1cccs1` [DULOXETINE], the AC50 was > 10 µM on Cannabinoid receptor 1 and 17.8 µM at Melanocortin receptor 4.
As to `C#Cc1cccc(Nc2ncnc3cc(OCCOC)c(OCCOC)cc23)c1` [ERLOTINIB], the AC50 (at Glucocorticoid receptor; in assay [2]; in assay [3]) was > 30 µM in each case.
Consider `CC1(C)O[C@@H]2C[C@H]3[C@@H]4C[C@H](F)C5=CC(=O)C=C[C@]5(C)[C@H]4[C@@H](O)C[C@]3(C)[C@]2(C(=O)CO)O1` [FLUNISOLIDE], for which the AC50 (at Glucocorticoid receptor; in assay [2]; in assay [3]) was > 30 µM each time.
On to `CCC(=O)O[C@@H](O[P@](=O)(CCCCc1ccccc1)CC(=O)N1C[C@H](C2CCCCC2)C[C@H]1C(=O)O)C(C)C` [FOSINOPRIL], for which the AC50 in [1] was > 30 µM.
Regarding `Cc1cnc(NC(=O)C2=C(O)c3ccccc3S(=O)(=O)N2C)s1` [MELOXICAM], the AC50 is > 30 µM at B1 bradykinin receptor; > 10 µM on Cannabinoid receptor 1; > 30 µM in assay [4]; > 30 µM at Melanocortin receptor 4; > 30 µM in assay [5].
As to `CC(=O)/N=c1/sc(S(N)(=O)=O)nn1C` [METHAZOLAMIDE], the AC50 (at Cannabinoid receptor 1; in assay [1]; on Melanocortin receptor 4) was > 10 µM throughout.
As for `CC(=O)Oc1ccccc1C(=O)Nc1ncc([N+](=O)[O-])s1` [NITAZOXANIDE], the AC50 in assay [1] was > 30 µM.
With `CN(C)c1cc(CNCC(C)(C)C)c(O)c2c1C[C@H]1C[C@H]3[C@H](N(C)C)C(O)=C(C(N)=O)C(=O)[C@@]3(O)C(O)=C1C2=O` [OMADACYCLINE], the AC50 in assay [1], in assay [2] and in [3] was > 30 µM each time.
As for `COc1ccnc(C[S+]([O-])c2nc3ccc(OC(F)F)cc3[nH]2)c1OC` (stereo unspecified) [PANTOPRAZOLE], the AC50 at B1 bradykinin receptor is > 30 µM; on Cannabinoid receptor 1, > 10 µM; in assay [4], > 30 µM; at Melanocortin receptor 4, > 30 µM; in assay [5], > 30 µM.
Regarding `CNC[C@H](O)c1cccc(O)c1` [PHENYLEPHRINE], the AC50 is > 30 µM on B1 bradykinin receptor; > 10 µM at Cannabinoid receptor 1; > 30 µM in assay [4]; > 30 µM in [1]; > 30 µM at Melanocortin receptor 4; > 30 µM in assay [5].
For `CNC(=O)c1cc(Oc2ccc(NC(=O)Nc3ccc(Cl)c(C(F)(F)F)c3)c(F)c2)ccn1` [REGORAFENIB], the AC50 in assay [1] is > 30 µM; on Glucocorticoid receptor, 17 µM.
`NC(=O)c1ncn([C@@H]2O[C@H](CO)[C@@H](O)[C@H]2O)n1` [RIBAVIRIN]: the AC50 on Cannabinoid receptor 1 and on Melanocortin receptor 4 was > 10 µM each time.
With `O=C(Nc1c(Cl)cncc1Cl)c1ccc(OC(F)F)c(OCC2CC2)c1` [ROFLUMILAST], the AC50 in assay [1] was > 30 µM.
For the molecule `CC[C@H]1OC(=O)[C@H](C)[C@@H](O[C@H]2C[C@@](C)(OC)[C@@H](O)[C@H](C)O2)[C@H](C)[C@@H](O[C@@H]2O[C@H](C)C[C@H](N(C)C)[C@H]2O)[C@](C)(O)C[C@@H](C)/C(=N\OCOCCOC)[C@H](C)[C@@H](O)[C@]1(C)O` [ROXITHROMYCIN], the AC50 (on Glucocorticoid receptor; in assay [2]; in assay [3]) was > 30 µM throughout.
For `CC(C)N(CCCCOCC(=O)NS(C)(=O)=O)c1cnc(-c2ccccc2)c(-c2ccccc2)n1` [SELEXIPAG], the AC50 in assay [1] is > 30 µM.
On to `CCCCNc1ccc(C(=O)OCCN(C)C)cc1` [TETRACAINE], for which the AC50 at B1 bradykinin receptor was > 30 µM; on Cannabinoid receptor 1 it was > 10 µM; in assay [4], > 30 µM; at Melanocortin receptor 4 it was > 30 µM; in [5] it was 9.9 µM.
As for `Cn1c(=O)c2[nH]cnc2n(C)c1=O` [THEOPHYLLINE], the half-maximal activity concentration (AC50) was > 30 µM at B1 bradykinin receptor; > 10 µM at Cannabinoid receptor 1; > 30 µM in assay [4]; > 30 µM on Melanocortin receptor 4; > 30 µM in assay [5].
Turning to `CN1CCN(CCCN2c3ccccc3Sc3ccc(S(=O)(=O)N(C)C)cc32)CC1` [THIOPROPERAZINE], the AC50 in [1] is > 30 µM.
For the molecule `CC1(C)O[C@@H]2[C@@H](CO[C@@]3(COS(N)(=O)=O)OC(C)(C)O[C@@H]23)O1` [TOPIRAMATE], the AC50 is > 30 µM at B1 bradykinin receptor; > 10 µM at Cannabinoid receptor 1; > 30 µM in assay [4]; > 30 µM on Melanocortin receptor 4; > 30 µM in assay [5].
Turning to `Cc1cc(CC(=O)O)n(C)c1C(=O)c1ccc(Cl)cc1` [ZOMEPIRAC], the AC50 in [1] is > 30 µM.
